Patent publication US7294642B2, “1,3-Diamino-2-hydroxypropane pro-drug derivatives” (Elan Pharmaceuticals, Inc., priority 2002, dated 2007)

Assay: Acyl group migration (rearrangement) of pro-drug in DMSO-d6/buffer solution monitored by 19F-NMR
Type: physicochemical
Procedure: A compound of formula (I) OR (X) (5 mg) is dissolved in DMSO-d6 (500 μL) and either pH 4 buffer solution (500 μL, potassium hydrogen phthalate buffer) or pH 7 buffer solution (500 μL, sodium and potassium phosphate buffer) is added. The sample is then heated to 40° C. The O-acyl or N-acyl to N-terminal N-acyl migration is monitored by observing the change in chemical shift for the aromatic fluorines using ^19F-NMR. (Fluorine shifts associated with the desired migration were confirmed by spiking with authentic analogue). The sample is analyzed by ^19F-NMR at approxiamately 0, 1.5, 3, 24, 48, and 144 hours. The amount of O-acyl pro-drug, N-acyl pro-drug, and desired migration product at each time point are assigned by integrating the corresponding NMR signal.
N˜1˜-[(2R,3S)-3-amino-4-(3,5-difluorophenyl)-2-hydroxybutyl]-5-(1,3-oxazol-2-yl)-N˜3˜,N˜3˜-dipropyl-N˜1˜-[3-(trifluoromethyl)benzyl]isophthalamide hydrochloride (PREPARATION 7, 5 mg) is dissolved in DMSO-d6 (500 μL) and pH 4 buffer solution (500 μL, potassium hydrogen phthalate buffer) is added. The sample is then heated to 40° C. The N-acyl to N-terminal N-acyl migration is monitored by observing the change in chemical shift for the aromatic fluorines using ^19F-NMR. (Fluorine shifts for the desired migration product in the presence of buffer was confirmed by spiking with authentic migration product, N^1-((1S,2R)-1-(3,5-difluorobenzyl)-2-hydroxy-3-{[3-(trifluoromethyl)benzyl]amino}propyl)-5-(1,3-oxazol-2-yl)-N^3,N^3-dipropylisophthalamide.) NMR data is collected at 0, 1, 3, 25, 48, 96, and 144 hours. The amount of N-acyl pro-drug and desired migration product present at each time point is assigned by integrating the corresponding NMR signal.
The following examples illustrate the solution acyl group migration of compounds of the formulae (I) and (X) as observed by ^19F NMR spectroscopy. Data were collected as described in Example 1, above.

In the case of `CCCN(CCC)C(=O)c1cc(C(=O)N(Cc2cccc(C(F)(F)F)c2)C[C@@H](O)[C@@H](N)Cc2cc(F)cc(F)c2)cc(-c2ncco2)c1.Cl` [N˜1˜-[(2R,3S)-3-amino-4-(3,5-difluorophenyl)-2-hydroxybutyl]-5-(1,3-oxazol-2-yl)-N˜3˜,N˜3˜-dipropyl-N˜1˜-[3-(trifluoromethyl)benzyl]isophthalamide hydrochloride], the “migration of N-acyl pro-drug to O-acyl pro-drug” value (pH 4 buffer/DMSO-d6, 40° C., 0 to 144 hours, 19F-NMR) is reported as “No migration to O-acyl pro-drug was observed”.

For `CCCN(CCC)C(=O)c1cc(C(=O)O[C@H](CNCc2cccc(CC)c2)[C@@H](N)Cc2cc(F)cc(F)c2)cc(-c2ncco2)c1.Cl.Cl` [Preparation 16, (1R,2S)-2-amino-3-(3,5-difluorophenyl)-1-{[(3-ethylbenzyl)amino]methyl}propyl 3-[(dispropylamino)carbonyl]-5-(1,3-oxazol-2-yl)benzoate dihydrochloride], the “HEA product (% present)” value (pH 4, 40° C., time 0 hr) was 0%, the “N-acyl prodrug (% present)” value (pH 4, 40° C., time 0 hr) was 0% and the “O-acyl pro-drug (% present)” value (pH 4, 40° C., time 0 hr) was 100%. For the same compound, the “HEA product (% present)” value (pH 4, 40° C., time 1.5 hr) was 54%, the “N-acyl prodrug (% present)” value (pH 4, 40° C., time 1.5 hr) was 13% and the “O-acyl pro-drug (% present)” value (pH 4, 40° C., time 1.5 hr) was 33%. The “HEA product (% present)” value (pH 4, 40° C., time 3 hr) was 76%, the “N-acyl prodrug (% present)” value (pH 4, 40° C., time 3 hr) was 15% and the “O-acyl pro-drug (% present)” value (pH 4, 40° C., time 3 hr) was 9%. The “HEA product (% present)” value (pH 4, 40° C., time 24 hr) was 88%, the “N-acyl prodrug (% present)” value (pH 4, 40° C., time 24 hr) was 12% and the “O-acyl pro-drug (% present)” value (pH 4, 40° C., time 24 hr) was 0%. The “HEA product (% present)” value (pH 4, 40° C., time 48 hr) was 88%, the “N-acyl prodrug (% present)” value (pH 4, 40° C., time 48 hr) was 12% and the “O-acyl pro-drug (% present)” value (pH 4, 40° C., time 48 hr) was 0%. For the same compound, the “HEA product (% present)” value (pH 4, 40° C., time 144 hr) was 91%, the “N-acyl prodrug (% present)” value (pH 4, 40° C., time 144 hr) was 9% and the “O-acyl pro-drug (% present)” value (pH 4, 40° C., time 144 hr) was 0%. The “HEA product (% present)” value (pH 7, 40° C., time 0 hr) was 0%, the “N-acyl prodrug (% present)” value (pH 7, 40° C., time 0 hr) was 0% and the “O-acyl pro-drug (% present)” value (pH 7, 40° C., time 0 hr) was 100%. For the same compound, the “HEA product (% present)” value (pH 7, 40° C., time 1.5 hr) was 48%, the “N-acyl prodrug (% present)” value (pH 7, 40° C., time 1.5 hr) was 52% and the “O-acyl pro-drug (% present)” value (pH 7, 40° C., time 1.5 hr) was 0%. The “HEA product (% present)” value (pH 7, 40° C., time 7 hr) was 54%, the “N-acyl prodrug (% present)” value (pH 7, 40° C., time 7 hr) was 46% and the “O-acyl pro-drug (% present)” value (pH 7, 40° C., time 7 hr) was 0%. For the same compound, the “HEA product (% present)” value (pH 7, 40° C., time 24 hr) was 62%, the “N-acyl prodrug (% present)” value (pH 7, 40° C., time 24 hr) was 38% and the “O-acyl pro-drug (% present)” value (pH 7, 40° C., time 24 hr) was 0%. The “HEA product (% present)” value (pH 7, 40° C., time 48 hr) was 71%, the “N-acyl prodrug (% present)” value (pH 7, 40° C., time 48 hr) was 29% and the “O-acyl pro-drug (% present)” value (pH 7, 40° C., time 48 hr) was 0%. The “HEA product (% present)” value (pH 7, 40° C., time 144 hr) was 85%, the “N-acyl prodrug (% present)” value (pH 7, 40° C., time 144 hr) was 15% and the “O-acyl pro-drug (% present)” value (pH 7, 40° C., time 144 hr) was 0%.
